Results published in patent US12215093B2, “Bicyclic carboxamides and methods of use thereof” (Tempest Therapeutics, Inc., priority 2018, dated 2025).

Legend:
[1] = molecular target: EP2 (Homo sapiens, UniProt P43116); test: cell-based;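 note: functional calcium flux assay in stably transfected HEK293 cells expressing EP2 coupled via a promiscuous G protein, clytin luminescence read as area under the curve, 30 min compound preincubation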
[2] = molecular target: T1, EP4 (Homo sapiens, UniProt P35408); test: Functional calcium flux assay, EP4; type: cell-based; conditions: stably transfected HEK293 cells; PGE2 10 nM; read-out: EP4 Ca2+-flux assay IC50
T1 construct: host or cells: stably transfected HEK293 cells co-expressing a promiscuous G protein and a clytin variant
Experimental: Each receptor subtype has an additional promiscuous G protein added in order to couple the aforementioned receptor to the calcium signaling pathway. The parental cell line used also expresses a novel variant of clytin, a calcium-activated photo-protein, to enable sensitive luminescent detection. Briefly, cells were plated at 50,000 cells-per-well in black, clear bottom 96-well plates. The plated cells were allowed to sit at room temperature for 30 min prior to transferring to a humidified, 37° C., 5% CO2 incubator for 18 to 24 h. Assay buffer (HBSS with 20 mM HEPES) and loading buffer (assay buffer plus 10 μM coelenterazine) were prepared on the day of the assay. Assays were performed by aspirating media from the assay plate and washing once with assay buffer, then replacing with loading buffer and allowing the cells to incubate for 1.5 h at room temperature. Compounds were prepared in assay buffer at a 3× final concentration in non-binding plates. Compounds were added to the cell plates and incubated for 30 min at room temperature. The prostanoid receptor ligand PGE2 was prepared at a 4× dilution ratio for a final concentration of 10 nM. Plates were run on a Flexstation™ using a 100 ms integration luminescence protocol for a total of 60 sec with ligand addition at 15 sec. Data were obtained from relative light units as measured by area under the curve.

[3] = Relative activity of resolved enantiomers/diastereomers (assay not stated); conditions: compared with the other eluting peak

Chain of EP2 (P43116 whole entry): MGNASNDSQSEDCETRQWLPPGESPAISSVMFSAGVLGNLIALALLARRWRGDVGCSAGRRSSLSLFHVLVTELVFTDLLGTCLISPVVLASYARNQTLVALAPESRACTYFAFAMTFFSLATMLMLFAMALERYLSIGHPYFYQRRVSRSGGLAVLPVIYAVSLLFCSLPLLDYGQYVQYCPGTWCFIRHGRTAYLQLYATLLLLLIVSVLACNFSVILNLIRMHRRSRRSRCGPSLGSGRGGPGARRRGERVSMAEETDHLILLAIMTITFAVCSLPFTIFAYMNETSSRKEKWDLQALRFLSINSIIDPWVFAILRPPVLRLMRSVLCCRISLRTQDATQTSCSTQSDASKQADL
T1 sequence (P35408 whole entry): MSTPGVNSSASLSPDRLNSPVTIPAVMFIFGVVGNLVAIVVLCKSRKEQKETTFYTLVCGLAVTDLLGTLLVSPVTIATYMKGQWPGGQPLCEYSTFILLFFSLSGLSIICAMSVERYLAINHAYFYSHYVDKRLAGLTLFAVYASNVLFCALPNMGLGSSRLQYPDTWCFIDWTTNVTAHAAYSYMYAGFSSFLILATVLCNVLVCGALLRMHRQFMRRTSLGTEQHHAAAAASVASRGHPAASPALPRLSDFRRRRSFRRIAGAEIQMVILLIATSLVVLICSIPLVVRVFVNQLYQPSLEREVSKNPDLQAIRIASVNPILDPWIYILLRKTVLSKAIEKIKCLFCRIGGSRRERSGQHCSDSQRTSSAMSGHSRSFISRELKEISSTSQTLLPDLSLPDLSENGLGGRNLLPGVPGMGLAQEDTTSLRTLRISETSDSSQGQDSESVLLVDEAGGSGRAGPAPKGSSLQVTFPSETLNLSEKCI

Structure (SMILES): CC(c1ccc(-c2ccccc2)cc1)n1ncc2cccc(C(=O)NC3CC4(C3)CC(C(=O)O)C4)c21 (single isomer, unassigned) [Example 125, (Sa)-6-(1-((R) or (S)-1-([1,1′-Biphenyl]-4-yl)-ethyl)-1H-indazole-7-carboxamido)spiro[3.3]heptane-2-carboxylic acid]
- IC50 [1]: < 25 nM
- IC50 [2]: < 1 nM
- more active enantiomer / diastereomer after chiral SFC resolution [3]: more active diastereomer
